In assay [1] the target is T1, human cannabinoid CB1 receptor (Homo sapiens, UniProt P21554).
T1 construct: purchased Perkin Elmer Inc., Singapore Pte; Ltd. RBHCB1M400UA; host or cells: HEK293-EBNA cell membranes (overexpressing)
Kind of assay: biochemical. Format: binding. The settings on record: for Ki: Cheng–Prusoff from IC50, [3H]CP-55940 0.5 nM, read-out: CB1 Ki; for Ki / IC50: mean ± SEM n = 3; for IC50: [3H]CP-55940 0.5 nM, hCB1 HEK293-EBNA membranes, read-out: CB1 IC50; for inhibition at 10 µM: displacement of [3H]CP-55940 at 10 μM compound, read-out: CB1 Max Tested µM (% Displacement). For orientation: In a radioligand displacement assay an active substance lowers the binding of a labelled ligand.

The target of assay [2] is T2, human recombinant cannabinoid CB2 receptor (Homo sapiens, UniProt P34972).
T2 construct: purchased Perkin Elmer Inc., Singapore Pte; Ltd. RBXCB2M400UA; host or cells: HEK293-EBNA cell membranes (overexpressing)
Kind of assay: CB2 radioligand displacement binding assay ([3H]CP-55940). The settings on record: for Ki: Cheng–Prusoff from IC50, [3H]CP-55940 0.5 nM; for Ki / IC50: mean ± SEM n = 3; for IC50: [3H]CP-55940 0.5 nM, hCB2 HEK293-EBNA membranes; for inhibition at 10 µM: displacement of [3H]CP-55940 at 10 μM compound, read-out: CB2 Max Tested µM (% Displacement).

The test system of the next assay is U87MG cells. Kind of assay: cells. Particulars: Homo sapiens, U-87 MG, 72 h, read-out: % Toxicity U87MG, 0.1 μM, 72 h, MTT, n = 3. The procedure:
(§1) HEK293, U87MG, and HL-60 cell lines were seeded in a flat-bottom 96-well plate at a density of 10,000 cells per well. […] All compounds were incubated at 0.1 μM in 200 μL of culture medium supplemented with 10% FBS, in a flat-bottom 96-well plate at a density of 10,000 cells per well, at 37 °C for 72 h. Next, 20 μL of a 5 mg/mL MTT solution was added, and the cells were incubated at 37 °C for 4 h. Then, they were solubilized with 10% sodium dodecyl sulfate (SDS) in 0.1 mM HCl and incubated overnight at 37 °C. Formazan absorbance of each well was measured using the EPOCH microplate reader (Biotek, Winooski, VT, USA) at a wavelength of 570 nm. […]
(§2) promyelocytic leukemia cells (HL-60) were maintained at 5% CO2 and 37 °C in DMEM, EMEM and RPMI medium, respectively containing 10% Fetal Bovine Serum and 100 U/mL penicillin and 100 […]
(§3) Cell viability: ([MTT - (3-(4,5-dimethylthiazol-2-yl)-2,5-diphenyltetrazolium bromide) - formazan] HEK293, U87MG, and HL-60 cells were first quantified to determine the exact number to be used in […]
(§4) with the Beer-Lambert(1).
(§5) HEK293, U87MG and HL-60 cell lines were seed in a flat-bottom 96-wells plate at a density of 10,000 […]
(§6) concentrations (0.001 μM to 10 μM) in 200 μL of respective culture medium supplemented with 10% fetal bovine serum (FBS), at 37 °C for 72 hours. Subsequently, 20 μL of 5 mg/mL MTT solution was added to each well, and cells were incubated at 37 °C for 4 h. The resulting formazan crystals were then solubilized with 10% sodium dodecyl sulfate (SDS) in 0.1 mM HCl, followed by overnight incubation at 37 °C. Untreated cells were used as the control, 0.1% of dimethyl sulfoxide (DMSO) as the vehicle control, and 0.2 % of Triton X-100 as a positive control for cell death. IC 50 toxicity values […]
(§7) same conditions described in the previous paragraph. […]
(§8) determined IC50. The stimulation with both CB ligands was performed simultaneously.
(§9) All compounds were incubated at 0.1 μM in 200 μL of culture medium supplemented with 10% FBS, in a flat-bottom 96-well plate at a density of 10,000 cells per well, at 37°C for 72 hours. Next, 20 μL of a 5 mg/mL MTT solution was added, and the cells were incubated at 37°C for 4 hours. Then, they were solubilized with 10% sodium dodecyl sulfate (SDS) in 0.1 mM HCl and incubated overnight at 37°C. Formazan absorbance of each well was measured using the EPOCH microplate reader (Biotek, USA) at a wavelength of 570 nm.
(§10) [1]Mosorov, V., The Lambert-Beer law in time domain form and its application.

A further assay concerns HL-60 cells. Kind of assay: cells. Particulars: Homo sapiens, HL-60, 72 h, read-out: % Toxicity HL-60. Here is the method:
as §1, §2, §3, §4, §5, §6, §7, §8, §9, §10

The next assay deals with HEK293 cells. Kind of assay: cells. The settings on record: Homo sapiens, HEK293, 72 h, read-out: % Toxicity HEK293T, 0.1 μM, 72 h, MTT, n = 3. The procedure: as §1, §2, §3, §4, §5, §6, §7, §8, §9, §10

We go through 2 compounds from article PMC12564498, “Benzo[d]imidazole–Naphthalen-Arylmethanone Regioisomers as CB1 Ligands: Evaluation of Agonism via an Indirect Cytotoxicity-Based Approach” (International Journal of Molecular Sciences, 2025).

SMILES strings stand for the structures. “And” between values parts separate entries of the source, which are not always exact repeats. Identical values can stand only once. A value given as a limit tells only on which side of the number the result lay.

T1 sequence (P21554 whole entry): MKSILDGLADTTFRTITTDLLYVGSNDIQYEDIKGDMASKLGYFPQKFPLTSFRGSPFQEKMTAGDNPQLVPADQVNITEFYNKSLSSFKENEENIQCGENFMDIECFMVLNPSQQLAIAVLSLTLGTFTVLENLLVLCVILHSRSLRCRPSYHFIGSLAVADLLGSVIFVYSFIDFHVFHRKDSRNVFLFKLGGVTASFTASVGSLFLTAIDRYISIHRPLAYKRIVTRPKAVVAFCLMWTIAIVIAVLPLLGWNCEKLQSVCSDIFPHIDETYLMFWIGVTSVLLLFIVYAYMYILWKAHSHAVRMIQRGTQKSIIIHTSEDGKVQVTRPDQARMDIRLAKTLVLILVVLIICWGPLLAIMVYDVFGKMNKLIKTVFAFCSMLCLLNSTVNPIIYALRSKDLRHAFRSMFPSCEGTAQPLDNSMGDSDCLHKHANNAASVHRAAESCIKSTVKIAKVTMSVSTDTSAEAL
T2 sequence (P34972 whole entry): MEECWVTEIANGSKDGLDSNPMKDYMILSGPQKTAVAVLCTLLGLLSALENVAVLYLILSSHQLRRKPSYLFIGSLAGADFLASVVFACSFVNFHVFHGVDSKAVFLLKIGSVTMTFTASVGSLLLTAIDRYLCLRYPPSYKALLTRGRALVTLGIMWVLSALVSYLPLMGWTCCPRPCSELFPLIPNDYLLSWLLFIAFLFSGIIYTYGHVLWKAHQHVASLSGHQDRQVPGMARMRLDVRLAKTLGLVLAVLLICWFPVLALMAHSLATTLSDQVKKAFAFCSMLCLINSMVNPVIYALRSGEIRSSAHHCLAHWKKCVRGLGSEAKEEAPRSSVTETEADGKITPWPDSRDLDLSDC

`COc1cccc(-c2nc3cc(F)ccc3n2C(=O)c2cccc3ccccc23)c1` [Compound 5b, (5-fluoro-2-(3-methoxyphenyl)-1H-benzo[d]imidazol-1-yl)(naphthalen-1-yl)methanone]: the inhibition constant Ki (as a rule, a dissociation constant, usually derived from enzyme kinetics or from competition with a known ligand) is ~1.53 µM and 1.53 µM in assay [1]; greater than 10 µM in assay [2]. Further, the IC50 (commonly the concentration at which inhibition is half-maximal) in assay [1] is 6.23 ± 3.8 µM; in assay [2], greater than 10 µM. The inhibition at 10 µM is greater than 55% in assay [1] and 45% in assay [2]. Besides, the results for the cytotoxicity at 0.1 µM in the assay with U87MG cells, in the assay with HL-60 cells and with HEK293 cells were 25 ± 14%, 45 ± 17% and 75 ± 17%, respectively.

`Cc1ccc(-c2nc3cc(F)ccc3n2C(=O)c2cccc3ccccc23)o1` [Compound 5e, (5-fluoro-2-(5-methylfuran-2-yl)-1H-benzo[d]imidazol-1-yl)(naphthalen-1-yl)methanone]: the Ki is 1.82 ± 1.64 µM in assay [1] and greater than 10 µM in assay [2]. Besides, the IC50 in assay [1] is 7.4 ± 3.28 µM; in assay [2], greater than 10 µM. For the same compound, the inhibition at 10 µM in assay [1] is greater than 55%; in assay [2], 38.5%. For the same compound, the figures for the cytotoxicity at 0.1 µM with U87MG cells, in the assay on HL-60 cells and with HEK293 cells were 39 ± 18%, 50 ± 19% and 55 ± 23%, respectively.
